Here are results for 13 compounds from PMC9420858, “Synthesis, bioactivity, and molecular docking of novel arylpiperazine derivatives as potential AR antagonists” (Frontiers in Chemistry, 2022).

Read-outs that look alike come from different tables or passages of the source.

As usually defined, the IC50 is the concentration needed to halve the response being measured. Broadly, the melting point is the temperature, or range, at which the solid turns liquid.

The subject of one series is RWPE-1 cells. The series is described as follows: Cytotoxicity, CCK-8 assay, RWPE-1 normal prostate epithelial cells. Format: cell-based. The note with it: RWPE-1 normal non-cancer human prostate epithelial cell line, 24 h, mean ± SD of three experiments. The protocol: (§1) The antiproliferative activity of compounds 5–26 was assessed using the CCK-8 assay ([Chen et al., 2016]; [Chen et al., 2017]; [Chen et al., 2018]; [Han et al., 2020]; [Guo et al., 2021]; [Hu et al., 2022]; [Zhou et al., 2022]). The 96-well plates (1×10^5 cells/mL) were seeded with cells in a medium, the plates were cultured at 37 °C for 24 h, then different concentrations of tested drugs were added, and the plates were cultured for 24 h. After 24 h, 10 μL of CCK-8 solution (5 mg/ml) was added to the wells, and the cells were cultured for 1 h at 37°C. Cell growth inhibition was performed by measuring the absorbance at 450 nm using a microplate reader, and the percentage of cell growth inhibition was then calculated for each tested drug.
(§2) Antiproliferative activity of the novel arylpiperazine derivatives was firstly evaluated against LNCaP cells using the CCK-8 assay. […] Naftopidil and finasteride ([Banday et al., 2014]) were used as control compounds. RWPE-1 cells were used to compare their toxicity. To clarify whether the antiproliferative activity was related to any interference with AR function, the AR antagonist effect was evaluated using the luciferase reporter gene assay. […] The AR luciferase assays were conducted under the co-treatment of 1 nM AR agonist R1881, and the antagonistic activity was measured by inhibiting the R1881-induced luciferase expression.
A general note: Tetrazolium assays rely on reduction of a dye to a coloured formazan, in cell work by metabolically active cells.

Series [1] has as its system PC-3 cells. The series is described as follows: Antiproliferative activity, CCK-8 assay, PC-3 cells. Format: cell-based. Conditions: PC-3 human prostate cancer cell line, 24 h, mean ± SD of three experiments. The protocol: as §1, §2
For the next series, the target named is T1, AR-LBD (GST) (Rattus norvegicus, UniProt P15207).
T1 sequence (P15207 651-882 limits assumed): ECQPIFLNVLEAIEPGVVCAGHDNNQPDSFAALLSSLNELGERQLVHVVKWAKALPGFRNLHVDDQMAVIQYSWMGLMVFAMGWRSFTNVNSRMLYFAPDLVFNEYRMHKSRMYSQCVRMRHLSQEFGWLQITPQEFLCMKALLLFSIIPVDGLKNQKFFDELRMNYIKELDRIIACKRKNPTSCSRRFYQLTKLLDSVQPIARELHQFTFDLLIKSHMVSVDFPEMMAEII
Nature of the series: AR binding, fluorescence polarization (PolarScreen AR Competitor Assay). Background: In fluorescence polarisation assays a small probe gives low polarisation when free and higher when bound to something large.

Series [2] concerns LNCaP cells. Nature of the series: Antiproliferative activity, CCK-8 assay, LNCaP cells. Format: cell-based. Conditions: 24 h, LNCaP human prostate cancer cell line, mean ± SD of three experiments. The protocol:
as §1, §2

For series [3], the system named is PC-3 cells. Conditions: printed without SD, ref Banday et al., 2014, read-out: PC-3 IC50 (control compound finasteride); cited from earlier work.
Series [4] has as its system LNCaP cells. Conditions: printed without SD, ref Banday et al., 2014, read-out: LNCaP IC50 (control compound finasteride); cited from earlier work.
Where [5] appears, read: AR binding affinity IC50, fluorescence polarization.

Description for AR-LBD (GST): Briefly, titrations are performed between the tested compounds and the preformed Fluormone™AL Green and the AR-LBD (GST) complex. The tested mixture was allowed to equilibrate at room temperature in 384-well plates for 4 h. […] Data of the ligand binding assays were analyzed using Prism software (GraphPad Software, Inc.).

As to `c1ccc(N2CCN(CCc3ccc(COc4ccc5c(c4)CCC5)cc3)CC2)cc1` [Compound 5, 1-(4-((2,3-dihydro-1H-inden-5-yloxy)methyl)phenethyl)-4-phenylpiperazine], the melting point was in the range of 82.2 to 83.5 °C. The IC50 with RWPE-1 cells is greater than 50 µM. Also, the IC50 in the series with PC-3 cells [1] was greater than 50 µM. At AR-LBD (GST), this compound yielded an IC50 of 1.46 ± 0.24 µM. Moreover, on AR-LBD (GST) (setting [5]), the IC50 is less than 2 µM.

Regarding `Cc1ccccc1N1CCN(CCc2ccc(COc3ccc4c(c3)CCC4)cc2)CC1` [Compound 8, 1-(4-((2,3-dihydro-1H-inden-5-yloxy)methyl)phenethyl)-4-o-tolylpiperazine], the melting point lay in the range of 62.3 to 63.1 °C. Besides, the IC50 with LNCaP cells [2] (Homo sapiens, LNCaP) was less than 10 µM. The compound also had an IC50 in the series on LNCaP cells [2] of 7.37 ± 0.15 µM. The compound also registered an IC50 in the series on RWPE-1 cells greater than 50 µM. In the series with PC-3 cells [1], this compound displayed an IC50 greater than 50 µM. The concentration for half-maximal inhibition (IC50) on AR-LBD (GST) is 2.35 ± 0.09 µM. The same compound returned an IC50 on AR-LBD (GST) (setting [5]) of less than 3 µM.

The compound `COc1ccccc1N1CCN(CCc2ccc(COc3ccc4c(c3)CCC4)cc2)CC1` [Compound 12, 1-(4-((2,3-dihydro-1H-inden-5-yloxy)methyl)phenethyl)-4-(2-methoxyphenyl)piperazine] displayed a melting point of 77.3 to 78.5 °C. This compound also showed an IC50 with LNCaP cells [2] (Homo sapiens, LNCaP) of less than 10 µM. In the series with LNCaP cells [2], this compound gave an IC50 of 8.12 ± 0.11 µM. Further, the IC50 with RWPE-1 cells was greater than 50 µM. Also, in the series with PC-3 cells [1], it took 25.62 ± 0.17 µM to reach half-maximal inhibition (IC50). The IC50 at AR-LBD (GST) was found to be 2.53 ± 0.15 µM. For the same compound, the IC50 at AR-LBD (GST) (setting [5]) is less than 3 µM.

As for `COc1cccc(N2CCN(CCc3ccc(COc4ccc5c(c4)CCC5)cc3)CC2)c1` [Compound 14, 1-(4-((2,3-dihydro-1H-inden-5-yloxy)methyl)phenethyl)-4-(3-methoxyphenyl)piperazine], the melting point was 74.2 to 75.4 °C. In the series on RWPE-1 cells, the IC50 was greater than 50 µM. Also, 0.87 ± 0.12 µM corresponded to half-maximal inhibition with PC-3 cells [1] (IC50). Besides, the IC50 on AR-LBD (GST) is 2.62 ± 0.25 µM.

The compound `COc1ccc(N2CCN(CCc3ccc(COc4ccc5c(c4)CCC5)cc3)CC2)cc1` [Compound 15, 1-(4-((2,3-dihydro-1H-inden-5-yloxy)methyl)phenethyl)-4-(4-methoxyphenyl)piperazine] returned a melting point of 78.1 to 79.3 °C. This compound also gave an IC50 in the series on LNCaP cells [2] (Homo sapiens, LNCaP) of less than 10 µM. The IC50 with LNCaP cells [2] is 9.72 ± 0.13 µM. In the series with RWPE-1 cells, this compound registered an IC50 of 21.7 ± 0.23 µM. For the same compound, the IC50 in the series with PC-3 cells [1] was determined as 8.94 ± 0.21 µM. In addition, on AR-LBD (GST), the IC50 is 2.85 ± 0.65 µM.

Take `Clc1ccccc1N1CCN(CCc2ccc(COc3ccc4c(c3)CCC4)cc2)CC1` [Compound 19, 1-(4-((2,3-dihydro-1H-inden-5-yloxy)methyl)phenethyl)-4-(2-chlorophenyl)piperazine]: the melting point fell in the range of 91.4 to 92.1 °C. For the same compound, the IC50 with LNCaP cells [2] (Homo sapiens, LNCaP) is less than 10 µM. The same compound gave an IC50 with LNCaP cells [2] of 6.87 ± 0.06 µM. Further, the IC50 with RWPE-1 cells amounted to 32.67 ± 0.14 µM. The IC50 in the series on PC-3 cells [1] was greater than 50 µM. In addition, the IC50 on AR-LBD (GST) amounted to 2.06 ± 0.21 µM. The compound further returned an IC50 at AR-LBD (GST) (setting [5]) of less than 3 µM.

As for `Clc1ccc(N2CCN(CCc3ccc(COc4ccc5c(c4)CCC5)cc3)CC2)cc1` [Compound 21, 1-(4-((2,3-dihydro-1H-inden-5-yloxy)methyl)phenethyl)-4-(4-chlorophenyl)piperazine], the melting point was 117.2 to 118.6 °C. In the series with RWPE-1 cells, this compound showed an IC50 greater than 50 µM. For the same compound, in the series on PC-3 cells [1], the IC50 was greater than 50 µM. The IC50 on AR-LBD (GST) came to 0.65 ± 0.08 µM. In addition, the IC50 on AR-LBD (GST) (setting [5]) was less than 2 µM.

As to `Clc1cccc(N2CCN(CCc3ccc(COc4ccc5c(c4)CCC5)cc3)CC2)c1Cl` [Compound 22, 1-(4-((2,3-dihydro-1H-inden-5-yloxy)methyl)phenethyl)-4-(2,3-dichlorophenyl)piperazine], the melting point was in the range of 77.2 to 78.4 °C. In the series on LNCaP cells [2] (Homo sapiens, LNCaP), this compound gave an IC50 of less than 10 µM. This compound also gave an IC50 with LNCaP cells [2] of 6.32 ± 0.14 µM. Moreover, the IC50 in the series with RWPE-1 cells was greater than 50 µM. The IC50 in the series with PC-3 cells [1] worked out at 23.48 ± 0.23 µM. Besides, the IC50 at AR-LBD (GST) turned out to be 2.47 ± 0.11 µM. At AR-LBD (GST) (setting [5]), this compound displayed an IC50 of less than 3 µM.

Regarding `Cc1ccc(Cl)cc1N1CCN(CCc2ccc(COc3ccc4c(c3)CCC4)cc2)CC1` [Compound 23, 1-(4-((2,3-dihydro-1H-inden-5-yloxy)methyl)phenethyl)-4-(5-chloro-2-methylphenyl)piperazine], the melting point lay in the range of 87.4 to 88.3 °C. This compound also gave an IC50 in the series on LNCaP cells [2] (Homo sapiens, LNCaP) of 12.6 ± 0.22 µM. Further, in the series on RWPE-1 cells, the IC50 was greater than 50 µM. Besides, in the series on PC-3 cells [1], 0.95 ± 0.14 µM corresponded to half-maximal inhibition (IC50).

The compound `Brc1ccc(N2CCN(CCc3ccc(COc4ccc5c(c4)CCC5)cc3)CC2)cc1` [Compound 24, 1-(4-((2,3-dihydro-1H-inden-5-yloxy)methyl)phenethyl)-4-(4-bromophenyl)piperazine] yielded a melting point of 114.1 to 115.2 °C. In addition, the IC50 in the series with LNCaP cells [2] (Homo sapiens, LNCaP) amounted to 14.7 ± 0.15 µM. The same compound registered an IC50 in the series with RWPE-1 cells greater than 50 µM. Also, the IC50 with PC-3 cells [1] turned out to be 2.31 ± 0.23 µM.

Compound `FC(F)(F)c1ccccc1N1CCN(CCc2ccc(COc3ccc4c(c3)CCC4)cc2)CC1` [Compound 25, 1-(4-((2,3-dihydro-1H-inden-5-yloxy)methyl)phenethyl)-4-(2-(trifluoromethyl)phenyl)piperazine] came in with a melting point of 53.6 to 54.8 °C. Moreover, the IC50 in the series with RWPE-1 cells was greater than 50 µM. The same compound showed a 50% inhibitory concentration (IC50) in the series with PC-3 cells [1] greater than 50 µM. Also, the IC50 at AR-LBD (GST) was determined as 1.22 ± 0.15 µM. The IC50 on AR-LBD (GST) (setting [5]) is less than 2 µM.

Take `FC(F)(F)c1ccc(N2CCN(CCc3ccc(COc4ccc5c(c4)CCC5)cc3)CC2)cc1` [Compound 26, 1-(4-((2,3-dihydro-1H-inden-5-yloxy)methyl)phenethyl)-4-(4-(trifluoromethyl)phenyl)piperazine]: the melting point was in the range of 135.3 to 136.5 °C. This compound also came in with an IC50 in the series on RWPE-1 cells greater than 50 µM. The compound further had an IC50 in the series with PC-3 cells [1] greater than 50 µM. The IC50 at AR-LBD (GST) turned out to be 1.43 ± 0.18 µM. At AR-LBD (GST) (setting [5]), the IC50 was less than 2 µM.

As to `CC(C)(C)NC(=O)[C@H]1CC[C@H]2[C@@H]3CC[C@H]4NC(=O)C=C[C@]4(C)[C@H]3CC[C@]12C` [Finasteride], the IC50 in the series with PC-3 cells [3] was 17.8 µM; with LNCaP cells [4], 13.5 µM.
